Measured values from US9090608B2, “Pharmaceutical composition for preventing or treating osteoporosis or obesity comprising phenyltetrazole derivative” (KOREA RESEARCH INSTITUTE OF CHEMICAL TECHNOLOGY, priority 2009, dated 2015).

Tests used:
Type in all cases: cell-based
[1] = test system: PPARγ; experiment: TAZ activity of inhibiting PPARγ function (aP2-luc reporter in 293T cells); settings: Homo sapiens, HEK-293T, 24 h, percentage based on inhibitory effect in non-treated control cells, read-out: Increased inhibition (%) of aP2 promoter activity
From the text: 293T cells (ATCC) were placed in the wells of a 48-well plate (1×10^5 cells/well) and stabilized. Introduced to the cells were PPARγ and TAZ expression vectors together with vectors aP2-luc (adipose fatty acid binding protein 2 promoter linked to luciferase) and pCMVβ Hong et al., Science 2005; 309:1074-8]. For observing the effect on transcription activation of the target gene by the PPARγ or TAZ protein expression, aP2-luc reporter gene was also introduced into the cells. For calibration of the introduction efficiency in cells, vector pCMVβ was introduced in cells in same amounts and the β-galactosidase activity was measured to calibrate the luciferase activity.
After 24 hours, the cells were treated with each of the inventive compounds to a concentration of 10 μM and then further cultivated for 24 hours. Proteins of the resulting cells were extracted with a lysis solution comprising NP-40, and thus luciferase activity was measured (Promega, Sunnyvale, Calif., USA).
Increased inhibitory effect on the aP2 promoter activity was analyzed and the results were calculated in percentage term based on the inhibitory effect on the aP2 promoter activity observed for the non-treated cells in a control group.

[2] = test system: RUNX2; experiment: TAZ activity of stimulating RUNX2 function (6xOSE-luc reporter in 293T cells); settings: for Additional stimulating activity on TAZ stimulation of RUNX2: 10 μM, considered additional when value exceeds 570% of the average increase by protein TAZ; for activity at 10 µM: Homo sapiens, HEK-293T, 24 hours, 293T cells, percentage based on non-treated control cells, read-out: Activity (%): osteocalcin promoter activity
Procedure: Introduced in 293T cells were introduced RUNX2 and TAZ expression vector together with 6×OSE-luc (osteocalcin-specific element linked to luciferase, six copies of RUNX2-binding site in the osteocalcin promoter linked to luciferase) [Hong et al., Science 2005; 309:1074-8]. This test was for an evaluation of an activity of the inventive compounds in stimulating the luciferase activity which increases when RUNX2 binds to TAZ.
After 24 hours, the cells were treated with each of the inventive compounds to a concentration of 10 μM and then further cultivated for 24 hours. The procedure of Test 2 was repeated to extract the cell protein, and then reporter gene analysis was conducted to quantify the effect of the inventive compounds on the TAZ activity in stimulating RUNX2. For comparing the transformation efficaciency, β-galactosidase expression vector (pCMVβ) was introduced to 293T cells and the β-galactosidase activity was measured for calibration.
The osteocalcin promoter activity was analyzed in percentage term based on that of non-treated cells in a control group. When the value exceeds 570% of the average increase by protein TAZ, the compound was considered to have an additional stimulating activity.

[3] = target: T1, protein TAZ (Homo sapiens, UniProt Q9GZV5); experiment: Stimulating TAZ protein migration toward nucleus (GFP-TAZ high-content imaging); settings: 0.5 h, after 30 minutes, Cos cells, percentage based on non-treated control cells, read-out: Expression (%): GFP expression of protein TAZ in the nucleus
T1 construct: introducing full length TAZ cDNA synthesized by PCR method into vector pEGFP; expressed in transfected cells
Procedure: Vector pEGFP-TAZ in which GFP (green fluorescence protein) is linked to protein TAZ was prepared, and nucleus specific histone protein (RFP-H2B) expression vector having introduced RFP (red fluorescence protein) therein was prepared. The vector pEGFP-TAZ was prepared by introducing full length TAZ cDNA synthesized by PCR method into vector pEGFP (Invitrogen, Carlsbad, Calif., USA) and then cloning. The expression vector RFP-H2B was prepared by introducing full length histone H2B cDNA into expression vector RFP (Clontech Laboratories, Inc., Palo Alto, Calif., USA) and then cloning.
Cos? cells (ATCC, Manassas, Va.) were distributed to each well of a 96-well plate (5×10^3 cells/well) and stabilized, and then vectors pEGFP-TAZ and RFP-H2B were introduced into the cells by employing Effectene™ (Qiagen). After 48 hours, the cells were treated with each of the inventive compounds to a concentration of 10 μM. After 30 minutes, the movement of green fluorescent color toward the cell nucleus was observed continually by employing BD Pathway™ high-content bioimager (BD bioscience). Using a quantification program (BD IPLab™ for Pathway and BD™ Image Data Explorer), GFP expression in the nucleus of RFP-expressed cells was quantified.
GFP expressions of protein TAZ in the nucleus were analyzed and calculated in percentage term based on that of non-treated cells in a control group, which are shown in Table 3.

[4] = test system: 3T3-L1 preadipocytes; experiment: Differentiation of 3T3-L1 cells into adipocytes (Oil-red O staining); settings: for Inhibition of adipocyte differentiation (Oil-red O staining): compound added at each medium replacement, after 8 days
Procedure: 3T3-L1 preadipocytes (ATCC CL-173) were dispersed in a DMEM medium comprising 10% FBS (fatal bovine serum , and then confluently cultivated for 48 hours in a 24-well plate (3×10^4 cells/well). 2 μM rosiglitazone, 5 μg/mL insulin, and 1 μM dexamethasone were added thereto to induce adipocyte differentiation.
After 48 hours, the medium was replaced with a DMEM comprising 5 μg/mL insulin and 10% FBS (fatal bovine serum), and 48 hours later, the medium was replaced with a DMEM comprising 10% FBS. Then, the medium was replaced every 48 hours to evaluate adipocyte differentiation. The inventive compounds were each added during the replacement of the medium. After 8 days, the cells were fixed with 10% formalin, and Oil-red O staining was conducted to confirm adipocytes generated in cells.

[5] = test system: C3H10T1/2 cells; experiment: Differentiation of C3H10T1/2 cells into osteoblasts (Alizarin red S staining); settings: 10 μM, after 20 days
Procedure: C3H10T1/2 cells (ATCC CCL 226) were diluted in a α-MEM medium comprising 10% FBS, cultivated in a 96-well plate (1×10^4 cells/well) for 48 hours, and the medium was replaced every 48 hours to observe the osteoblast differentiation. On the initiation of differentiation, the medium was treated with 10 μM of each of the inventive compounds.
After 20 days, the cells were fixed with 70% ethanol and stained with an Alizarin red S solution to confirm increased calcium in osteocytes. In the Alizarin red staining test, the degrees of osteoblast differention can be identified by the intensity of red color.

T1 sequence (Q9GZV5 whole entry): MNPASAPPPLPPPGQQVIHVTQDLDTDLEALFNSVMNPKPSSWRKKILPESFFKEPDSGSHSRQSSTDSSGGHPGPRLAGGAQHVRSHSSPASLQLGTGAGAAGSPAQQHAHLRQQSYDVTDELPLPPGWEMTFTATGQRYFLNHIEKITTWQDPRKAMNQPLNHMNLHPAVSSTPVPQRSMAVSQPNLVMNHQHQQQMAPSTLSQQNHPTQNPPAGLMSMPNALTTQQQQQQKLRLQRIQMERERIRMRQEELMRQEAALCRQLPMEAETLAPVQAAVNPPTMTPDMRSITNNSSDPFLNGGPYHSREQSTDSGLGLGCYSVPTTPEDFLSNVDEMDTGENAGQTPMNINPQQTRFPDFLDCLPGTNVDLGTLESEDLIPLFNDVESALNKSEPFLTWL

Structure (SMILES) | activity at 10 µM [3] [%] | inhibition at 10 µM [1] [%] | Additional stimulating activity on TAZ stimulation of RUNX2 [2] | activity at 10 µM [2] [%] | Inhibition of adipocyte differentiation (Oil-red O staining) [4] | Stimulation of osteoblast differentiation (Alizarin red staining) [5] | Inhibition of adipocyte differentiation at a higher concentration ([4]; treating at a higher concentration)
CCCCc1nc2cc(C(O)c3ccccc3)c(C(OC)OC)nc2n1Cc1ccc(-c2ccccc2-c2nnn[nH]2)cc1 (centres unmarked) [VIII, {2-butyl-5-dimethoxymethyl-3-[2′-(1H-tetrazol-5-yl)biphenyl-4-ylmethyl]-3H-imidazo[4,5-b]pyridin-6-yl}phenylmethanol] | – | > 60 | additional stimulating activity was observed | 688 | – | – | –
CCCCc1nc2cc(/C=C/c3ccccc3)c(C(=O)OC)cc2n1Cc1ccc(-c2ccccc2-c2nnn[nH]2)cc1 [XIII, methyl 2-butyl-5-styryl-1-[2′-(1H-tetrazol-5-yl)biphenyl-4-ylmethyl]-1H-benzimidazol-6-carboxylate] | – | 39.9 | – | 569 | – | – | –
CCCCc1nc2cc(-c3cccnc3)c(C)nc2n1Cc1ccc(-c2ccccc2-c2nnn[nH]2)cc1 [III, 2-butyl-5-methyl-6-pyridin-3-yl-3-[2′-(1H-tetrazol-5-yl)biphenyl-4-ylmethyl]-3H-imidazo[4,5-b]pyridine] | 157 | > 60 | – | 259 | adipocyte differentiation was inhibited | osteoblast differentiation was stimulated | –
CCc1nc2c(C)cc(CO)nc2n1Cc1ccc(-c2ccccc2-c2nnn[nH]2)cc1 [II, {2-ethyl-7-methyl-3-[2′-(1H-tetrazol-5-yl)biphenyl-4-ylmethyl]-3H-imidazo [4,5-b]pyridin-5-yl}methanol] | 130 | 43.2 | – | 473 | – | – | –
CCCCc1nc2cc(Br)c(COC(C)=O)nc2n1Cc1ccc(-c2ccccc2-c2nnnn2C(C)OCC)cc1 (centres unmarked) [IX, 6-bromo-2-butyl-3-{2′-[1-(1-ethoxyethyl)-1H-tetrazol-5-yl]biphenyl-4-ylmethyl}-3H-imidazo[4,5-b]pyridin-5-ylmethyl acetate] | 147 | 22.7 | additional stimulating activity was observed | 676 | – | – | –
CCCCc1nc2cc(-c3ccccn3)c(C(=O)OC)nc2n1Cc1ccc(-c2ccccc2-c2nnn[nH]2)cc1 [IV, methyl 2-butyl-6-pyridin-2-yl-3-[2′-(1H-tetrazol-5-yl)biphenyl-4-ylmethyl]-3H-imidazo[4,5-b]pyridine-5-carboxylate] | 135 | – | – | 463 | adipocyte differentiation was inhibited | – | –
CCCCc1nc2cc(Br)c(COC(C)=O)nc2n1Cc1ccc(-c2ccccc2-c2nnn[nH]2)cc1 [X, 6-bromo-2-butyl-3-[2′-(1H-tetrazol-5-yl)biphenyl-4-ylmethyl]-3H-imidazo[4,5-b]pyridin-5-ylmethyl acetate] | – | 57.5 | additional stimulating activity was observed | 672 | – | – | –

More lines, main results first:

activity at 10 µM [3] [%] | Structure (SMILES) | inhibition at 10 µM [1] [%] | Additional stimulating activity on TAZ stimulation of RUNX2 [2] | activity at 10 µM [2] [%] | Inhibition of adipocyte differentiation (Oil-red O staining) [4] | Stimulation of osteoblast differentiation (Alizarin red staining) [5] | Inhibition of adipocyte differentiation at a higher concentration ([4]; treating at a higher concentration)
149 | CCCCc1nc2cc(C(=O)OC)c(/C=C/c3ccccc3)cc2n1Cc1ccc(-c2ccccc2-c2nnn[nH]2)cc1 [XII, methyl 2-butyl-6-styryl-1-[2′-(1H-tetrazol-5-yl)biphenyl-4-ylmethyl]-1H-benzimidazol-5-carboxylate] | > 60 | – | 296 | adipocyte differentiation was inhibited | – | –
160 | CCCCc1nc2cc(C(O)c3ccccc3)c(C(OC)OC)nc2n1Cc1ccc(-c2ccccc2-c2nnnn2C(C)OCC)cc1 (centres unmarked) [VII, (2-butyl-5-dimethoxymethyl-3-{2′-[1-(1-ethoxyethyl)-1H-tetrazol-5-yl]biphenyl-4-ylmethyl}-3H-imidazo[4,5-b]pyridin-6-yl)phenylmethanol] | 46.7 | – | 476 | – | – | markedly increased inhibitory effect
151 | CCCCc1nc2c(C)cc(CO)nc2n1Cc1ccc(-c2ccccc2-c2nnn[nH]2)cc1 [V, {2-butyl-7-methyl-3-[2′-(1H-tetrazol-5-yl)biphenyl-4-ylmethyl]-3H-imidazo[4,5-b]pyridin-5-yl}methanol] | 32.3 | – | 468 | – | osteoblast differentiation was stimulated | –
132 | CCCCc1nc2cc(-c3cccc[n+]3[O-])c(CF)nc2n1Cc1ccc(-c2ccccc2-c2nnn[nH]2)cc1 [VI, 2-butyl-5-fluoromethyl-6-(1-oxypyridin-2-yl)-3-[2′-(1H-tetrazol-5-yl)biphenyl-4-ylmethyl]-3H-imidazo[4,5-b]pyridine] | 51.3 | – | 483 | – | – | –
134 | CCCCc1nc2c(C)c(-c3ccccc3)c(COCSC)nc2n1Cc1ccc(-c2ccccc2-c2nnn[nH]2)cc1 [XI, 2-butyl-7-methyl-5-((methylsulfanylmethoxy)methyl)-6-phenyl-3-[2′-(1H-tetrazol-5-yl)biphenyl-4-ylmethyl]-3H-imidazo[4,5-b]pyridine] | – | additional stimulating activity was observed | 754 | – | – | –
